From ChEMBL document CHEMBL3632524, “3-(2,6-Dichloro-benzyloxy)-11-oxo-olean-12-ene-29-oic acid, a semisynthetic derivative of glycyrrhetic acid: synthesis, antiproliferative, apoptotic and anti-angiogenesis activity” (Medchemcomm, 2015) come the findings set out here.

By IC50 is commonly meant the concentration needed to halve the response being measured.

Assay type in all cases: functional, cell-based
The subject of one assay is PC-3. Put plainly: Antiproliferative activity against human PC3 cells assessed as cell viability after 48 hrs by MTT assay. The following applies: PC-3, 48 h. (Tetrazolium dyes change colour on reduction, which living cells bring about.)
The test system of a further assay is HepG2. Put plainly: Antiproliferative activity against human HepG2 cells assessed as cell viability after 48 hrs by MTT assay. The following applies: HepG2, 48 h.
Assay [1] can be described thus: Antiproliferative activity against human MIAPaCa2 cells assessed as cell viability after 48 hrs by MTT assay. To be noted: MIA PaCa-2, 48 h.
For a further assay, the system named is HL-60. Description: Cytotoxicity against human HL60 cells.

Some results are limits rather than exact numbers.

In the case of `CC1(C)[C@@H](OCc2ccccc2[N+](=O)[O-])CC[C@]2(C)[C@H]3C(=O)C=C4[C@@H]5C[C@@](C)(C(=O)O)CC[C@]5(C)CC[C@@]4(C)[C@]3(C)CC[C@@H]12`, the IC50 (in the assay with PC-3; in the assay with HepG2; in assay [1]) was more than 20 µM in each case.

With `CC1(C)[C@@H](OCc2ccc(C(F)(F)F)cc2C(F)(F)F)CC[C@]2(C)[C@H]3C(=O)C=C4[C@@H]5C[C@@](C)(C(=O)O)CC[C@]5(C)CC[C@@]4(C)[C@]3(C)CC[C@@H]12`, the IC50 (in the assay with PC-3; in the assay on HepG2; in assay [1]) was more than 20 µM in each case.

Turning to `CC[C@@]1(O)C(=O)OCc2c1cc1n(c2=O)Cc2cc3ccccc3nc2-1` [CAMPTOTHECIN], the values for the IC50 (in the assay with HepG2; in assay [1]) were 0.2 µM and 0.19 µM, respectively.

Turning to `CC1(C)[C@@H](OCc2ccc(Cl)cc2)CC[C@]2(C)[C@H]3C(=O)C=C4[C@@H]5C[C@@](C)(C(=O)O)CC[C@]5(C)CC[C@@]4(C)[C@]3(C)CC[C@@H]12`, the IC50 (with PC-3; in the assay on HepG2; in assay [1]) was more than 20 µM in each case.

With `CC1(C)[C@@H](OCc2ccc(Br)cc2)CC[C@]2(C)[C@H]3C(=O)C=C4[C@@H]5C[C@@](C)(C(=O)O)CC[C@]5(C)CC[C@@]4(C)[C@]3(C)CC[C@@H]12`, the IC50 (in the assay with PC-3; in the assay on HepG2; in assay [1]) was more than 20 µM each time.

Turning to `CC1(C)[C@@H](OCc2ccc(Cl)cc2Cl)CC[C@]2(C)[C@H]3C(=O)C=C4[C@@H]5C[C@@](C)(C(=O)O)CC[C@]5(C)CC[C@@]4(C)[C@]3(C)CC[C@@H]12`, the IC50 with PC-3 is 18 µM; with HepG2 it was more than 100 µM; in assay [1], more than 100 µM.

As to `CC1(C)[C@@H](OCc2ccc(F)c(Br)c2)CC[C@]2(C)[C@H]3C(=O)C=C4[C@@H]5C[C@@](C)(C(=O)O)CC[C@]5(C)CC[C@@]4(C)[C@]3(C)CC[C@@H]12`, the IC50 (in the assay on PC-3; in the assay with HepG2; in assay [1]) was more than 20 µM in each case.

With `CC1(C)[C@@H](OCc2cccc(Cl)c2)CC[C@]2(C)[C@H]3C(=O)C=C4[C@@H]5C[C@@](C)(C(=O)O)CC[C@]5(C)CC[C@@]4(C)[C@]3(C)CC[C@@H]12`, the IC50 (in the assay with PC-3; in the assay on HepG2; in assay [1]) was more than 20 µM each time.

Consider `COc1ccc(CO[C@H]2CC[C@]3(C)[C@H]4C(=O)C=C5[C@@H]6C[C@@](C)(C(=O)O)CC[C@]6(C)CC[C@@]5(C)[C@]4(C)CC[C@H]3C2(C)C)cc1Br`, for which the IC50 (with PC-3; in the assay with HepG2; in assay [1]) was more than 20 µM in each case.

For the compound `CC(=O)O[C@H]1C(=O)[C@@]2(C)[C@H]([C@H](OC(=O)c3ccccc3)[C@]3(O)C[C@H](OC(=O)[C@H](O)[C@@H](NC(=O)c4ccccc4)c4ccccc4)C(C)=C1C3(C)C)[C@]1(OC(C)=O)CO[C@@H]1C[C@@H]2O` [PACLITAXEL], the IC50 in the assay with PC-3 was 0.012 µM; in the assay on HepG2 it was more than 100 µM; in assay [1], 0.1 µM.

Take `CC1(C)[C@@H](OCc2ccccc2I)CC[C@]2(C)[C@H]3C(=O)C=C4[C@@H]5C[C@@](C)(C(=O)O)CC[C@]5(C)CC[C@@]4(C)[C@]3(C)CC[C@@H]12`: the IC50 (with PC-3; in the assay on HepG2; in assay [1]) was more than 20 µM each time.

Consider `CC(C)=CCO[C@H]1CC[C@]2(C)[C@H]3C(=O)C=C4[C@@H]5C[C@@](C)(C(=O)O)CC[C@]5(C)CC[C@@]4(C)[C@]3(C)CC[C@H]2C1(C)C`, for which the IC50 (in the assay with PC-3; in the assay with HepG2; in assay [1]) was more than 20 µM each time.

For `CO[C@H]1CC[C@]2(C)[C@H]3C(=O)C=C4[C@@H]5C[C@@](C)(C(=O)O)CC[C@]5(C)CC[C@@]4(C)[C@]3(C)CC[C@H]2C1(C)C`, the IC50 (in the assay with PC-3; in the assay on HepG2; in assay [1]) was more than 20 µM each time.

With `CC1(C)[C@@H](OCc2ccc(F)cc2)CC[C@]2(C)[C@H]3C(=O)C=C4[C@@H]5C[C@@](C)(C(=O)O)CC[C@]5(C)CC[C@@]4(C)[C@]3(C)CC[C@@H]12`, the IC50 with PC-3 is 9 µM; with HepG2 it was more than 100 µM; in assay [1], 12 µM.

As for `CC1(C)[C@@H](OCc2c(F)cccc2Cl)CC[C@]2(C)[C@H]3C(=O)C=C4[C@@H]5C[C@@](C)(C(=O)O)CC[C@]5(C)CC[C@@]4(C)[C@]3(C)CC[C@@H]12`, the IC50 is 10 µM with PC-3, more than 100 µM with HepG2 and 11 µM in assay [1].

On to `CC1(C)[C@@H](O)CC[C@]2(C)[C@H]3C(=O)C=C4[C@@H]5C[C@@](C)(C(=O)O)CC[C@]5(C)CC[C@@]4(C)[C@]3(C)CC[C@@H]12` [ENOXOLONE], for which the IC50 with PC-3 is more than 20 µM; with HepG2, more than 20 µM; with HL-60, 63.2 µM; in assay [1] it was more than 20 µM.

`CC(C)=CCC/C(C)=C\CO[C@H]1CC[C@]2(C)[C@H]3C(=O)C=C4[C@@H]5C[C@@](C)(C(=O)O)CC[C@]5(C)CC[C@@]4(C)[C@]3(C)CC[C@H]2C1(C)C`: the IC50 (with PC-3; in the assay on HepG2; in assay [1]) was more than 20 µM each time.

`CC1(C)[C@@H](OCc2ccc3c(c2)OCO3)CC[C@]2(C)[C@H]3C(=O)C=C4[C@@H]5C[C@@](C)(C(=O)O)CC[C@]5(C)CC[C@@]4(C)[C@]3(C)CC[C@@H]12`: the IC50 (in the assay with PC-3; in the assay with HepG2; in assay [1]) was more than 20 µM throughout.

In the case of `CC1(C)[C@@H](OCc2cccc([N+](=O)[O-])c2)CC[C@]2(C)[C@H]3C(=O)C=C4[C@@H]5C[C@@](C)(C(=O)O)CC[C@]5(C)CC[C@@]4(C)[C@]3(C)CC[C@@H]12`, the IC50 (in the assay on PC-3; in the assay with HepG2; in assay [1]) was more than 20 µM each time.

For `COc1ccc(CO[C@H]2CC[C@]3(C)[C@H]4C(=O)C=C5[C@@H]6C[C@@](C)(C(=O)O)CC[C@]6(C)CC[C@@]5(C)[C@]4(C)CC[C@H]3C2(C)C)cc1OC`, the IC50 (in the assay on PC-3; in the assay with HepG2; in assay [1]) was more than 20 µM throughout.
